Results reported in patent US7074789B2, “Kinase inhibitors” (Amgen Inc., priority 1999, dated 2006).

Experiments:
Assay type in all cases: biochemical
[1] = molecular target: T1, Lck (Homo sapiens, UniProt P06239); experiment: Kinase inhibition assay (33P transfer), Lck; conditions: Table 3, class symbols; read-out: Lck-1
T1 construct: Kinases are expressed as either kinase domains or full length constructs; made in house
Method in brief: (§1)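 Kinase domains or full-length kinases, GST- or His-tagged and expressed in E. coli or baculovirus/High Five cells, transferred 33PO4 from ATP onto plate-bound poly(Glu,Tyr) 4:1 or poly(Arg,Ser) 3:1. After incubation, plates were washed with 0.5% phosphoric acid and counted by liquid scintillation.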

[2] = molecular target: T2, Zap-70 (Homo sapiens, UniProt P43403); experiment: Kinase inhibition assay (33P transfer), Zap-70; conditions: Table 3, class symbols; read-out: Zap-1
T2 construct: Kinases are expressed as either kinase domains or full length constructs; made in house
T2 sequence (P43403 1-619): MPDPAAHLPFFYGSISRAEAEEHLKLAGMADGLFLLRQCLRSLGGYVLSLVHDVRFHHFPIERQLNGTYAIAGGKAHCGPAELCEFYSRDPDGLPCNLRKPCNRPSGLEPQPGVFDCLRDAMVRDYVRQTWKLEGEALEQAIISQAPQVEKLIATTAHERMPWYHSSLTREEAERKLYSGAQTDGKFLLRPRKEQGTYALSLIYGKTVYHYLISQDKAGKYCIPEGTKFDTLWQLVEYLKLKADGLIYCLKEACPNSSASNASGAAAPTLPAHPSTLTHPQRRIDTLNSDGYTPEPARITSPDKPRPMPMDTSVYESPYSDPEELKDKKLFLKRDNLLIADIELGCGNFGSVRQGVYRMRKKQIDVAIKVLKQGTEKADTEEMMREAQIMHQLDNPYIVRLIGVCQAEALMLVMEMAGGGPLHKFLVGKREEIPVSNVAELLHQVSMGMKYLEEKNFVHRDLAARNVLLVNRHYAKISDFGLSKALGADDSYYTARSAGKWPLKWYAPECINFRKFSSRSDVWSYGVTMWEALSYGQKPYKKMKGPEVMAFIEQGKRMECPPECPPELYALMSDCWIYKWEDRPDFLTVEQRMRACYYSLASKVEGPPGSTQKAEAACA
Method in brief: as §1

[3] = molecular target: T3, Itk (Homo sapiens, UniProt Q08881); experiment: Kinase inhibition assay (33P transfer), Itk; conditions: Table 3, class symbols; read-out: Itk-1
T3 construct: Kinases are expressed as either kinase domains or full length constructs; made in house
T3 sequence (Q08881 1-620): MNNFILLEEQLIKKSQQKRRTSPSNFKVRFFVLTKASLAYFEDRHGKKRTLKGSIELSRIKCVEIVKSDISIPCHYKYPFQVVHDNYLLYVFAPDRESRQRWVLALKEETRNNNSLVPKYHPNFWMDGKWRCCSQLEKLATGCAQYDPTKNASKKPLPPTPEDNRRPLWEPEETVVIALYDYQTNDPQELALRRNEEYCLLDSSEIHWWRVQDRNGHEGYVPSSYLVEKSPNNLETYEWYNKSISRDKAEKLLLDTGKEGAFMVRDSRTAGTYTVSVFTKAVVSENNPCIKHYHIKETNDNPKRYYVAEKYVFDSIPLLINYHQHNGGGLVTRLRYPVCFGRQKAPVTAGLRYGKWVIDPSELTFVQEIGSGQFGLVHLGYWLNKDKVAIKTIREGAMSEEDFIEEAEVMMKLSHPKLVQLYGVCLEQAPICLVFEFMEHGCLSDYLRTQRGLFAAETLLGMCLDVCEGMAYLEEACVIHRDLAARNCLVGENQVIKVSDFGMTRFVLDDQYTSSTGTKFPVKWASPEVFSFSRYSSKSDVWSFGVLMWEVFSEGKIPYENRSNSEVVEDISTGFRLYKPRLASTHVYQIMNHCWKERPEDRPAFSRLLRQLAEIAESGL
Method in brief: (§2)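 Using immobilised substrate copolymers (poly(Glu,Tyr) 4:1; poly(Arg,Ser) 3:1) and [33P]ATP, purified fusion kinases were allowed to react; plates were then rinsed in 0.5% phosphoric acid and counted in a scintillation detector. Half-maximal inhibition of label transfer defines IC50.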

[4] = molecular target: T4, EGFR (Homo sapiens, UniProt P00533); experiment: Kinase inhibition assay (33P transfer), EGFR; conditions: Table 2, class symbols A-E; read-out: EGFR-1
T4 construct: Kinases are expressed as either kinase domains or full length constructs; made in house
T4 sequence (P00533 25-1210, species assumed): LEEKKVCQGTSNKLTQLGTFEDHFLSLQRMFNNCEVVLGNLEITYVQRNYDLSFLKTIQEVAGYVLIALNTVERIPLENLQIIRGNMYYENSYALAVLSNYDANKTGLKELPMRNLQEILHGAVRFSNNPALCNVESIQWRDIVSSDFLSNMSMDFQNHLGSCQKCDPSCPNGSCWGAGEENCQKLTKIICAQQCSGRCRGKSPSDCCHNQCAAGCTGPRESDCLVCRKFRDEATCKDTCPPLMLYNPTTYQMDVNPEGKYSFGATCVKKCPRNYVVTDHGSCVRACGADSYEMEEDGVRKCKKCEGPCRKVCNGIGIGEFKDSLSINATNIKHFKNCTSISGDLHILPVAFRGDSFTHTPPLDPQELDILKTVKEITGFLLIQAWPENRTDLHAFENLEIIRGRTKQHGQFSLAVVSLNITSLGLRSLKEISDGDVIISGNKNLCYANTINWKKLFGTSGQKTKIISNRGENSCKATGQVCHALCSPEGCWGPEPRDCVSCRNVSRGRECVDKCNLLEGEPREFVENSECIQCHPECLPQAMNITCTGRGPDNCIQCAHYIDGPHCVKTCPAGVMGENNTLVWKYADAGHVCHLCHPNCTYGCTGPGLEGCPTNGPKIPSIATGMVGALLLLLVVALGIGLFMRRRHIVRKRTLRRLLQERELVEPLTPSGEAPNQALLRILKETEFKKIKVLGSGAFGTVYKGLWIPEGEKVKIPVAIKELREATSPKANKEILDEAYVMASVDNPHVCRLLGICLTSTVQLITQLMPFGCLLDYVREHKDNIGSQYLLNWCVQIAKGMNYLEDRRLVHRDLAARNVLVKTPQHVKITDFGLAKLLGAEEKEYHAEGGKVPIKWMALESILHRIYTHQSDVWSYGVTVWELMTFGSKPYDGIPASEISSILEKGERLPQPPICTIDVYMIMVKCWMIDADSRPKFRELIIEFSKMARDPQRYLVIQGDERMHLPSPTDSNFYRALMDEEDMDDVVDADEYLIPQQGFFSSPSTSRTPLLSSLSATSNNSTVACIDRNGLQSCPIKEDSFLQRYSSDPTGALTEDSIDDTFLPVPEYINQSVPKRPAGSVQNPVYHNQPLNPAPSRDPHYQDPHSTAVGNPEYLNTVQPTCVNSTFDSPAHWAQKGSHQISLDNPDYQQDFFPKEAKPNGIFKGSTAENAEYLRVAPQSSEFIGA
Method in brief: as §2

[5] = molecular target: T5, ErbB2 (Homo sapiens, UniProt P04626); experiment: Kinase inhibition assay (33P transfer), ErbB2; conditions: read-out: ErbB2-2
T5 construct: Kinases are expressed as either kinase domains or full length constructs; made in house
Method in brief: as §2

[6] = molecular target: T6, Kdr (Homo sapiens, UniProt P35968); experiment: Kinase inhibition assay (33P transfer), Kdr; conditions: Table 3, class symbols; read-out: KDR-1
T6 construct: Kinases are expressed as either kinase domains or full length constructs; made in house
T6 sequence (P35968 20-1356, species assumed): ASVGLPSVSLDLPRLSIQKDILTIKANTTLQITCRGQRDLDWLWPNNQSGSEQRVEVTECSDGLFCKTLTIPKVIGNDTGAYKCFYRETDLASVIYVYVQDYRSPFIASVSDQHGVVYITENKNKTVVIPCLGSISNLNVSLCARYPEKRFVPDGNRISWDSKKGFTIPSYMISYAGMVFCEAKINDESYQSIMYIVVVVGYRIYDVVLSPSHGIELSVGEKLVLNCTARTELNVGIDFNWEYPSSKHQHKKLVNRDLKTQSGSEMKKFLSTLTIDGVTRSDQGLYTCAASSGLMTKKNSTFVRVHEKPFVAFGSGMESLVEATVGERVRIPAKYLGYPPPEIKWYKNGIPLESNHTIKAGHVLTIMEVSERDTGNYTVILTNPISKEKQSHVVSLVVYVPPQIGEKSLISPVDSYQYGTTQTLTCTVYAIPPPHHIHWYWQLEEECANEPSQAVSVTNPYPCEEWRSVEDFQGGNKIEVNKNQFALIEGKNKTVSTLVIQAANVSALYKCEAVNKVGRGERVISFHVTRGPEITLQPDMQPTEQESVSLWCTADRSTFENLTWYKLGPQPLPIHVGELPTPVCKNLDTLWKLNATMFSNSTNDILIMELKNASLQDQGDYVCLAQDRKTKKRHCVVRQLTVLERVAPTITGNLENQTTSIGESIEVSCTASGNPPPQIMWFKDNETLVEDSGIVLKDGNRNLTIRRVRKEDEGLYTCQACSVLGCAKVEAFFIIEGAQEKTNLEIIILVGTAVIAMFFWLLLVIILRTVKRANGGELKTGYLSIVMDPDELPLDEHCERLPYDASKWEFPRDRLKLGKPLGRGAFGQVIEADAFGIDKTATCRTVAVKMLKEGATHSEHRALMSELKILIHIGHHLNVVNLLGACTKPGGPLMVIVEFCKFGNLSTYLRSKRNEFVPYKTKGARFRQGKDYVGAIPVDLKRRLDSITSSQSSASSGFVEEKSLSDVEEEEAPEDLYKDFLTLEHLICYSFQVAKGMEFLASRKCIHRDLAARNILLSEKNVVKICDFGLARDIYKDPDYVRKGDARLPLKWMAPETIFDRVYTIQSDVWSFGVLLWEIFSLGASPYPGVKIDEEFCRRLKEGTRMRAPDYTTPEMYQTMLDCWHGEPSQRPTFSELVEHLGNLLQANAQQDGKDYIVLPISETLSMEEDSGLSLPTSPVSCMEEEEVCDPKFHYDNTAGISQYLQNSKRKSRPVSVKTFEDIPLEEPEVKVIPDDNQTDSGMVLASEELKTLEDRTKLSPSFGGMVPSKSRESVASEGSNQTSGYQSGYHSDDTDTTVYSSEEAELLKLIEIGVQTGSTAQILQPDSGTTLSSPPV
Method in brief: as §1

[7] = molecular target: T7, c-Met (Homo sapiens, UniProt P08581); experiment: Kinase inhibition assay (33P transfer), c-Met; conditions: Table 2, class symbols A-E; read-out: Met-1
T7 construct: Kinases are expressed as either kinase domains or full length constructs; made in house
T7 sequence (P08581 25-1390): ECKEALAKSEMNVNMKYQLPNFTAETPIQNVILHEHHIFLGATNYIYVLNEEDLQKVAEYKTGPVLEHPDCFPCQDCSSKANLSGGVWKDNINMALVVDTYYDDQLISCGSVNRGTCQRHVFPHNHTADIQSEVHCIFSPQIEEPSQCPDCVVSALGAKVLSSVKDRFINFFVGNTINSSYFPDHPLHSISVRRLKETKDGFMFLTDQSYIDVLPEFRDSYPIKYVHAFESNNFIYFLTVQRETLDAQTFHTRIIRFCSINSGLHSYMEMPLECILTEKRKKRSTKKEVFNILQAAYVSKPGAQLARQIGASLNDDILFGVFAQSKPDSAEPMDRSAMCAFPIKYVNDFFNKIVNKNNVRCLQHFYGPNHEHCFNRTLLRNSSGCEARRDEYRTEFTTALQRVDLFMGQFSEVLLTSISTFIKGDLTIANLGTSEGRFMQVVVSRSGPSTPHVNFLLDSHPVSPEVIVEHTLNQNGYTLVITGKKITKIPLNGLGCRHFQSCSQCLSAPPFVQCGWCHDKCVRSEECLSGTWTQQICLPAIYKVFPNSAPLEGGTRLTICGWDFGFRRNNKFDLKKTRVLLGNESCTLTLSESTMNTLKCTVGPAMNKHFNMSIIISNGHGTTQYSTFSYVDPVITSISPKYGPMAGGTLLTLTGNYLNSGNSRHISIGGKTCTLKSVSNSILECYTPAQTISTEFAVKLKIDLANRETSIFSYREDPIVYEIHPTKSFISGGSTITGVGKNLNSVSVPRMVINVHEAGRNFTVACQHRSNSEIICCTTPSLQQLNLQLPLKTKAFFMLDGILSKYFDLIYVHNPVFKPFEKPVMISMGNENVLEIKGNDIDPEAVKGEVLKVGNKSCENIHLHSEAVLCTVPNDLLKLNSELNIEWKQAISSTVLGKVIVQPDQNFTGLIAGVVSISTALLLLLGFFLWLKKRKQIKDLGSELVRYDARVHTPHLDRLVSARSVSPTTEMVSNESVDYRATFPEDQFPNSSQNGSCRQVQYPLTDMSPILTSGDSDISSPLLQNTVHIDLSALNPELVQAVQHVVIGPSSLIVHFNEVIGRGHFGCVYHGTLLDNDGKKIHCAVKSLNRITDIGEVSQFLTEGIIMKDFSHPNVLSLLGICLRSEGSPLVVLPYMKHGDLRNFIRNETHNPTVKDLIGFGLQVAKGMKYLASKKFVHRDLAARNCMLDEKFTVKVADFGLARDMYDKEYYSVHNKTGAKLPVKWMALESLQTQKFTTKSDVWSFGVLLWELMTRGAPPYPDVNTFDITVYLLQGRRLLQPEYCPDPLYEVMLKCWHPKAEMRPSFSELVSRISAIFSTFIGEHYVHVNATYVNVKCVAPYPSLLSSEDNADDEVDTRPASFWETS
Method in brief: as §2

[8] = molecular target: T8, AKT (Homo sapiens, UniProt Q9Y243); experiment: Kinase inhibition assay (33P transfer), AKT; conditions: Table 2, class symbols A-E; read-out: AKT3-1
T8 construct: Kinases are expressed as either kinase domains or full length constructs; made in house
T8 sequence (Q9Y243 whole entry, the tested form may be a part): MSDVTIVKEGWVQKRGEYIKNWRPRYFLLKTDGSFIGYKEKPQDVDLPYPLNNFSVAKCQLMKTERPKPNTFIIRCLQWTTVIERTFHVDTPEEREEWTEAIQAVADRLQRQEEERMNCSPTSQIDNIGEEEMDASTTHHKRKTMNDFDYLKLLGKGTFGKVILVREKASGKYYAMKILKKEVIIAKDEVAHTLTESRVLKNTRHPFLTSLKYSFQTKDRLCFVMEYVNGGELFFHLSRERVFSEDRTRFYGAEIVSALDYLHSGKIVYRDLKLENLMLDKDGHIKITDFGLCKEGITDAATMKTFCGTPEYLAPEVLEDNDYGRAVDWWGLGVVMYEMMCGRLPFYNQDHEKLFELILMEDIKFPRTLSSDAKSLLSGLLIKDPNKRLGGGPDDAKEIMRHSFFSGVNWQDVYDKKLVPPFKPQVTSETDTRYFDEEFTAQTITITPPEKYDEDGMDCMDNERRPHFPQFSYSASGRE
Method in brief: as §1

[9] = molecular target: T9, IGFR-1 (Homo sapiens, UniProt P08069); experiment: Kinase inhibition assay (33P transfer), IGFR-1; conditions: Table 2, class symbols A-E
T9 construct: Kinases are expressed as either kinase domains or full length constructs; made in house

[10] = molecular target: T10, PDGFRB (Homo sapiens, UniProt P09619); experiment: Kinase inhibition assay (33P transfer), PDGFRB; conditions: read-out: PDGFRB-1
T10 construct: Kinases are expressed as either kinase domains or full length constructs; made in house

T1 sequence (P06239 whole entry, species assumed, the tested form may be a part): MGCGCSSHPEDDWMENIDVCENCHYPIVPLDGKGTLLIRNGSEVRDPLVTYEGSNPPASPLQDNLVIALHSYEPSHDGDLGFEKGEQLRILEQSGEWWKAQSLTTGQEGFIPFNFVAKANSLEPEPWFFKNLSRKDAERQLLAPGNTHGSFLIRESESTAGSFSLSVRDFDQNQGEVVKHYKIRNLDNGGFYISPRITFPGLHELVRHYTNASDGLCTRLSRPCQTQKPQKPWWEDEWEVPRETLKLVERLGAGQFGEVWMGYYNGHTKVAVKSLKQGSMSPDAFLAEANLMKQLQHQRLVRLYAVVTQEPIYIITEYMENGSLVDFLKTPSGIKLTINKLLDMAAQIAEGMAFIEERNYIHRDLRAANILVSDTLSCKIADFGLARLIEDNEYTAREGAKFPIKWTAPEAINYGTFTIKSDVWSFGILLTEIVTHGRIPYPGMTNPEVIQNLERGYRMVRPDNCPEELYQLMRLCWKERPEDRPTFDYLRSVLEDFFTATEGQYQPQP

CN(c1cccc(Br)c1)c1ncnc(Nc2cccc(Cc3nnn[nH]3)c2)n1 [Compound 670]
IC50 [1]: 0.913 to 5.48 µM
IC50 [2]: > 10.3 µM
IC50 [3]: > 10.3 µM
IC50 [4]: < 0.913 µM
IC50 [5]: < 0.913 µM
IC50 [6]: 0.913 to 5.48 µM
IC50 [7]: < 0.913 µM
IC50 [8]: > 10.3 µM
IC50 [9]: > 10.3 µM
IC50 [10]: 0.913 to 5.48 µM

CN(c1ccc2c(cnn2Cc2ccccc2)c1)c1ncnc(Nc2cccc(Cc3nnn[nH]3)c2)n1 [Compound 671]
IC50 [1]: 7.15 to 9.19 µM
IC50 [2]: > 9.19 µM
IC50 [3]: 7.15 to 9.19 µM
IC50 [4]: < 0.817 µM
IC50 [5]: < 0.817 µM
IC50 [6]: 0.817 to 4.9 µM
IC50 [7]: < 0.817 µM
IC50 [8]: > 9.19 µM
IC50 [9]: 4.9 to 7.15 µM
IC50 [10]: 0.817 to 4.9 µM

CN(c1cccc(Cl)c1)c1ncnc(Nc2ccc3nn(Cc4ccccc4)cc3c2)n1 [Compound 673]
IC50 [1]: 5.43 to 7.92 µM
IC50 [2]: 7.92 to 10.2 µM
IC50 [3]: > 10.2 µM
IC50 [4]: < 0.905 µM
IC50 [5]: 5.43 to 7.92 µM
IC50 [6]: 5.43 to 7.92 µM
IC50 [7]: 0.905 to 5.43 µM
IC50 [8]: > 10.2 µM
IC50 [9]: > 10.2 µM
IC50 [10]: 0.905 to 5.43 µM

CN(c1cccc(Cl)c1)c1ncnc(Nc2ccc3c(cnn3C)c2)n1 [Compound 674]
IC50 [1]: 1.09 to 6.56 µM
IC50 [2]: > 12.3 µM
IC50 [3]: > 12.3 µM
IC50 [4]: < 1.09 µM
IC50 [5]: 1.09 to 6.56 µM
IC50 [6]: 1.09 to 6.56 µM
IC50 [7]: 1.09 to 6.56 µM
IC50 [8]: > 12.3 µM
IC50 [9]: > 12.3 µM
IC50 [10]: 1.09 to 6.56 µM

CN(c1cccc(Cl)c1)c1ncnc(Nc2ccc3nn(C)cc3c2)n1 [Compound 675]
IC50 [1]: 1.09 to 6.56 µM
IC50 [2]: > 12.3 µM
IC50 [3]: > 12.3 µM
IC50 [4]: < 1.09 µM
IC50 [5]: < 1.09 µM
IC50 [6]: 1.09 to 6.56 µM
IC50 [7]: 1.09 to 6.56 µM
IC50 [8]: > 12.3 µM
IC50 [9]: 6.56 to 9.57 µM
IC50 [10]: 1.09 to 6.56 µM

CN(c1cccc(Cl)c1)c1ncnc(Nc2cccc(Cn3ccnn3)c2)n1 [Compound 678]
IC50 [1]: 1.02 to 6.11 µM
IC50 [2]: > 11.5 µM
IC50 [3]: 1.02 to 6.11 µM
IC50 [4]: < 1.02 µM
IC50 [5]: < 1.02 µM
IC50 [6]: 1.02 to 6.11 µM
IC50 [7]: < 1.02 µM
IC50 [8]: > 11.5 µM
IC50 [9]: > 11.5 µM
IC50 [10]: < 1.02 µM

COc1cc(Nc2ncnc(NC(=O)Cc3ccccc3)n2)cc(OC)c1OC [Compound 679]
IC50 [1]: 1.01 to 6.07 µM
IC50 [2]: > 11.4 µM
IC50 [3]: > 11.4 µM
IC50 [4]: 1.01 to 6.07 µM
IC50 [5]: 6.07 to 8.85 µM
IC50 [6]: 8.85 to 11.4 µM
IC50 [7]: > 11.4 µM
IC50 [8]: > 11.4 µM
IC50 [9]: > 11.4 µM
IC50 [10]: 8.85 to 11.4 µM

C=CCN(c1cccc(Cl)c1)c1ncnc(Nc2cc(OC)cc(OC)c2)n1 [Compound 722]
IC50 [1]: 1.01 to 6.03 µM
IC50 [2]: > 11.3 µM
IC50 [3]: < 1.01 µM
IC50 [4]: < 1.01 µM
IC50 [5]: 1.01 to 6.03 µM
IC50 [6]: < 1.01 µM
IC50 [7]: 1.01 to 6.03 µM
IC50 [8]: > 11.3 µM
IC50 [9]: 8.8 to 11.3 µM
IC50 [10]: 1.01 to 6.03 µM

CCN(c1cccc(Cl)c1)c1ncnc(Nc2cc(OC)cc(OC)c2)n1 [Compound 724]
IC50 [1]: 1.04 to 6.22 µM
IC50 [2]: > 11.7 µM
IC50 [3]: 1.04 to 6.22 µM
IC50 [4]: < 1.04 µM
IC50 [5]: 1.04 to 6.22 µM
IC50 [6]: 1.04 to 6.22 µM
IC50 [7]: 1.04 to 6.22 µM
IC50 [8]: > 11.7 µM
IC50 [9]: 1.04 to 6.22 µM
IC50 [10]: 1.04 to 6.22 µM

COc1ccc(Nc2ncnc(NCc3cccc(Cl)c3)n2)cc1OC [Compound 792]
IC50 [1]: 1.08 to 6.45 µM
IC50 [2]: > 12.1 µM
IC50 [3]: > 12.1 µM
IC50 [4]: 1.08 to 6.45 µM
IC50 [5]: 6.45 to 9.41 µM
IC50 [6]: > 12.1 µM
IC50 [7]: > 12.1 µM
IC50 [8]: > 12.1 µM
IC50 [9]: > 12.1 µM
IC50 [10]: > 12.1 µM

COc1ccc(Nc2ncnc(Nc3ccc(F)c(F)c3)n2)cc1OC [Compound 794]
IC50 [1]: 1.11 to 6.68 µM
IC50 [2]: 9.74 to 12.5 µM
IC50 [3]: 9.74 to 12.5 µM
IC50 [4]: 1.11 to 6.68 µM
IC50 [5]: 1.11 to 6.68 µM
IC50 [6]: 6.68 to 9.74 µM
IC50 [7]: 9.74 to 12.5 µM
IC50 [8]: > 12.5 µM
IC50 [9]: 6.68 to 9.74 µM
IC50 [10]: 1.11 to 6.68 µM

COc1ccc(Nc2ncnc(N(C)c3ccc(Cl)cc3)n2)cc1OC [Compound 795]
IC50 [1]: 1.08 to 6.45 µM
IC50 [2]: > 12.1 µM
IC50 [3]: > 12.1 µM
IC50 [4]: < 1.08 µM
IC50 [5]: < 1.08 µM
IC50 [6]: 1.08 to 6.45 µM
IC50 [7]: < 1.08 µM
IC50 [8]: > 12.1 µM
IC50 [9]: 9.41 to 12.1 µM
IC50 [10]: < 1.08 µM

COc1ccc(Nc2ncnc(N(C)C3CCCCC3)n2)cc1OC [Compound 796]
IC50 [1]: < 1.16 µM
IC50 [2]: > 13.1 µM
IC50 [3]: 6.99 to 10.2 µM
IC50 [4]: < 1.16 µM
IC50 [5]: 6.99 to 10.2 µM
IC50 [6]: 10.2 to 13.1 µM
IC50 [7]: 1.16 to 6.99 µM
IC50 [8]: > 13.1 µM
IC50 [9]: > 13.1 µM
IC50 [10]: 1.16 to 6.99 µM

COc1ccc(Nc2ncnc(N(C)c3ccccc3)n2)cc1OC [Compound 797]
IC50 [1]: 1.19 to 7.11 µM
IC50 [2]: > 13.3 µM
IC50 [3]: > 13.3 µM
IC50 [4]: < 1.19 µM
IC50 [5]: 1.19 to 7.11 µM
IC50 [6]: 1.19 to 7.11 µM
IC50 [7]: 1.19 to 7.11 µM
IC50 [8]: > 13.3 µM
IC50 [9]: 7.11 to 10.4 µM
IC50 [10]: 7.11 to 10.4 µM
